Experimental data published in US10028956B2, “Methods of treating various cancers using an AXL/cMET inhibitor in combination with other agents” (Ignyta, Inc., priority 2013, dated 2018).
Marks after values point to notes of the source that are not given here.

What was measured:
[1] = system: CTG-0192 erlotinib-sensitive NSCLC TumorGraft; experiment: NSCLC TumorGraft model CTG-0192; type: in vivo, mice; conditions: for % Tumor Growth Inhibition: CTG-0192, 32 days
Description: (§1) Methods (for the experiments shown in FIGS. 10 and 11) • Female immunocompromised nu/nu mice (Harlan) between 6-9 weeks of age were housed on irradiated papertwist-enriched ⅛″ corncob bedding (Sheperd) in individual HEPA ventilated cages (Innocage® IVC, Innovive USA) on a 12-hour light-dark cycle at 68-74° F. (20-23° C.) and 30-70% humidity. Animals were fed water ad libitum (reverse osmosis, 2 ppm Cl2) and an irradiated Test rodent diet (Teklad 2919) consisting of 19% protein, 9% fat, and 4% fiber. • Tumor Models: Champions TumorGraft models of NSCLC are owned by Champions Oncology. In this study, animals were implanted unilaterally on the right flank with tumor fragments harvested from host animals. […] Erlotinib (manufacturer: OSI Pharmaceuticals; National Drug Code: 50242-062-01; Lot #: US0002) was formulated using 100% PEG-400 as the vehicle according to manufacturer's specifications.
(§2) Efficacy measurements: Beginning Day 0, tumor dimensions were measured twice weekly by digital caliper (Fowler Ultra-Cal IV) and data including individual and mean estimated tumor volumes (Mean TV±SEM) were recorded for each group; tumor volume was calculated using the formula TV=width^2×length×0.52. At study completion, percent tumor growth inhibition (% TGI) values were calculated and reported for each treatment group (T) versus control (C) using initial (i) and final (f) tumor measurements by the formula: % TGI=1−Tf−Ti/Cf−C; single agent or combination therapies resulting in a TGI>50 at study completion are considered active in the tested model at the evaluated treatment regimen according to NCI guidelines. Individual mice reporting a tumor volume ≤50% of the Day 0 measurement for two consecutive measurements over a seven day period were considered partial responders (PR). If the PR persisted until study completion, percent tumor regression (% TR) was determined using the formula: % TR=1−Tf/Ti×100; a mean value was calculated if multiple PR mice occurred in one group. Individual mice lacking palpable tumors (<4×4 mm^2 for two consecutive measurements over a seven day period) were classified as complete responders (CR); a CR that persisted until study completion was considered a tumor-free survivor (TFS). TFS animals are excluded from efficacy calculations. Statistical differences in tumor volume were determined using a two-tailed One-Way Analysis of Variance (ANOVA) followed by the Dunett's multiple comparisons test comparing treated groups with control and combinations with standard agent alone when possible. All data collected in this study was managed electronically and stored on a redundant server system.

AXL = molecular target: T1, AXL (Homo sapiens, UniProt P30530); experiment: Dissociation from AXL, LanthaScreen Eu-kinase binding assay
T1 sequence (P30530 26-894): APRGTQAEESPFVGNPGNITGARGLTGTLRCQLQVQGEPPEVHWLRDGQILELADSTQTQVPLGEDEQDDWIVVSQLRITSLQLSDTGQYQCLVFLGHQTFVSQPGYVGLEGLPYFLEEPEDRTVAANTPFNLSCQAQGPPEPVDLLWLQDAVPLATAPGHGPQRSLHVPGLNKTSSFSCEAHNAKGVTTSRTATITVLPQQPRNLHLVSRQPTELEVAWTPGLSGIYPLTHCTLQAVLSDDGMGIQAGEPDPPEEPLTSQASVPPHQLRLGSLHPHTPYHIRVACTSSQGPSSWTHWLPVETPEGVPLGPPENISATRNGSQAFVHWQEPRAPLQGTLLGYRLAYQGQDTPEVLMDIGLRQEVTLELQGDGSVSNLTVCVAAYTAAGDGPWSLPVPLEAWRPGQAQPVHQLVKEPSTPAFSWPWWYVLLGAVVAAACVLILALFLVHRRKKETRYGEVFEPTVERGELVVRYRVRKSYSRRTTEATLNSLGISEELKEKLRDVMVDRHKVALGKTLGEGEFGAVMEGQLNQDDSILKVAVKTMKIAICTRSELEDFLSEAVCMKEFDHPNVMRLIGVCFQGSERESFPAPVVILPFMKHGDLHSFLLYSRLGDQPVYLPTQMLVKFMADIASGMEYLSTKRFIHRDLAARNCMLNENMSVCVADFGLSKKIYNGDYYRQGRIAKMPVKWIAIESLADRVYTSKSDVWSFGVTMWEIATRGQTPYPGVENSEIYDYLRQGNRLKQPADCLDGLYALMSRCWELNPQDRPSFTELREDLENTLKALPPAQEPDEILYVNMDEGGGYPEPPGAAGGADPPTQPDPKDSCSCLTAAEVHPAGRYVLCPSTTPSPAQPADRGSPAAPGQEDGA
Description: Assay buffer was prepared as for association, and used for all dilutions. A 5-μL aliquot of 80 nM LanthaScreen Eu-anti-GST antibody:20 nM GST-tagged enzyme mix was added to the Greiner low volume white 384-well plate, with antibody only added to control wells. Compound (100 nL) in DMSO was added by pintool at 2000-fold over the final assay concentration. DMSO was added to no inhibitor control wells. After a one-hour incubation at ambient temperature to allow formation of the enzyme-inhibitor complex, 2 μL of the reaction mix was transferred to a 384 Optiplate (PerkinElmer) and 78 μL of kinase tracer 236 was added. The final tracer concentration was 100 nM for AXL and 200 nM for c-Met. Readings were immediately initiated and total of 60 time points were taken at 2-min intervals, at 25° C. or 37° C. The background subtracted ratio was normalized to the no inhibitor control to calculate the % tracer bound, which was plotted with respect to time. The data was fitted to the one phase association model in GraphPad Prism (La Jolla Calif.).

[2] = system: CTG-0159 primary NSCLC human TumorGraft; experiment: NSCLC TumorGraft model CTG-0159; type: in vivo, mice; conditions: CTG-0159, 14 days
Description: as §1
as §2, with “Individual mice reporting a tumor volume ≤50% of the Day 0 measurement for two consecutive measurements over a seven day period were considered partial responders (PR).” left out, “Individual mice lacking palpable tumors (<4×4 mm^2 for two consecutive measurements over a seven day period) were classified as complete responders (CR); a CR that persisted until study completion was considered a tumor-free survivor (TFS). TFS animals are excluded from efficacy calculations.” left out, “All data collected in this study was managed electronically and stored on a redundant server system.” left out

c-Met = c-Met (Homo sapiens, UniProt P08581); experiment: c-Met enzyme inhibition; type: biochemical
Chain of c-Met (P08581 25-1390): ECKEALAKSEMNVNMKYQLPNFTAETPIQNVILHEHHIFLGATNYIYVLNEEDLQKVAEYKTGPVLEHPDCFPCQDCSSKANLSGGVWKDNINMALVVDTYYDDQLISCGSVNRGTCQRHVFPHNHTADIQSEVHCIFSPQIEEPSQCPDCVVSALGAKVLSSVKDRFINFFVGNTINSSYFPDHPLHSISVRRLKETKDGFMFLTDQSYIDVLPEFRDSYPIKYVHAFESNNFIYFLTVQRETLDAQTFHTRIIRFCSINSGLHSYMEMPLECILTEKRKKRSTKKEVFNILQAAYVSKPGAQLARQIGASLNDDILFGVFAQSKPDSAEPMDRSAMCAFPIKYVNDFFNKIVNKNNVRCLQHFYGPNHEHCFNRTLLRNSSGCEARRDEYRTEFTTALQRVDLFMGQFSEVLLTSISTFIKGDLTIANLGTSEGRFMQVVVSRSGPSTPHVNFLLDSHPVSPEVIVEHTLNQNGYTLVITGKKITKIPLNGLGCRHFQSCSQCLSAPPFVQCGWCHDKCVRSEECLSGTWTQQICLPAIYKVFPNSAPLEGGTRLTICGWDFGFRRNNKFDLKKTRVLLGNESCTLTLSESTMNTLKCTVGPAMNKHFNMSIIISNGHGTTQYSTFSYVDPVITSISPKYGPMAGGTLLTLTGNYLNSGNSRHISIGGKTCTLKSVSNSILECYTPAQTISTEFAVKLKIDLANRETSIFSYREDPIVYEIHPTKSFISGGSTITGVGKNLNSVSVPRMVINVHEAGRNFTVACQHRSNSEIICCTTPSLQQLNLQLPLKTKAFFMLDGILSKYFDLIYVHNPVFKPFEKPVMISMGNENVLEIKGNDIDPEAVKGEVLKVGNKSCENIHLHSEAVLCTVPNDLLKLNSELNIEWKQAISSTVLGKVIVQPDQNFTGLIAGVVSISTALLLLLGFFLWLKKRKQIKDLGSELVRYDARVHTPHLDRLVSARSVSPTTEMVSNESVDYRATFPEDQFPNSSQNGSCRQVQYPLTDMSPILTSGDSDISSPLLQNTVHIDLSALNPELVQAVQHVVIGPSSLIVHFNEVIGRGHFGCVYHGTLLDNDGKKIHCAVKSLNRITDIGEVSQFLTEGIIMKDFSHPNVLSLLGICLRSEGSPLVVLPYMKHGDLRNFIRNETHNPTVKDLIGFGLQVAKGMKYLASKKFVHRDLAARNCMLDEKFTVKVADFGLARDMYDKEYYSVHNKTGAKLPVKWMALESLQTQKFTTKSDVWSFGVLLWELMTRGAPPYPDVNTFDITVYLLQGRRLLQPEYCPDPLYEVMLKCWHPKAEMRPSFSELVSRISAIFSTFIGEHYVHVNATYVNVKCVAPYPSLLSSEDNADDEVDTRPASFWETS

SMILES: COc1cc2nccc(Oc3ccc(NC(=O)c4cn(C(C)C)c(=O)n(-c5ccc(F)cc5)c4=O)cc3F)c2cc1OC [CEP-40783, 3-(4-Fluorophenyl)-1-isopropyl-2,4-dioxo-1,2,3,4-tetrahydropyrimidine-5-carboxylic acid [4-(6,7-dimethoxyquinolin-4-yloxy)-3-fluorophenyl]-amide]
- acquired resistance during the treatment phase ([1]; CTG-0192): no acquired resistance
- % Tumor Growth Inhibition ([1]; 10 mg/kg po/qd): 85%*
- % Tumor Growth Inhibition ([1]; 30 mg/kg po/qd): 71%*
- tumor response, single agent ([1]; CTG-0192, also after dosing discontinued (day 34)): significant TGI/tumor stasis was maintained even after dosing was discontinued
- off-rate from AXL (AXL; 25° C.): very slow
- dissociation rate from AXL at higher temperature (AXL; 37° C. versus 25° C.): slightly enhanced
- % Tumor Growth Inhibition ([2]; 10 mg/kg po/qd): 46%*
- % Tumor Growth Inhibition ([2]; 30 mg/kg po/qd): 66%*†
- IC50 (c-Met): 0.012 µM
